# Source: patent US8541379B2 (Ajinomoto Co., Inc., priority 2009, dated 2013)
# Experiments:
# [1] = biological target: T1, human CaSR (Homo sapiens, UniProt P41180, E1011Q); assay: Evaluation of CaSR agonist activity (Ca2+ fluorescence, hCaSR-transfected 293E cells); type: cell-based
# T1 construct: expressed in transfected cells; host or cells: 293E cells (EBNA1-expressing HEK293, ATCC CRL-10852), transient transfection with Fugene6
# T1 sequence (P41180 20-1078 E1011Q): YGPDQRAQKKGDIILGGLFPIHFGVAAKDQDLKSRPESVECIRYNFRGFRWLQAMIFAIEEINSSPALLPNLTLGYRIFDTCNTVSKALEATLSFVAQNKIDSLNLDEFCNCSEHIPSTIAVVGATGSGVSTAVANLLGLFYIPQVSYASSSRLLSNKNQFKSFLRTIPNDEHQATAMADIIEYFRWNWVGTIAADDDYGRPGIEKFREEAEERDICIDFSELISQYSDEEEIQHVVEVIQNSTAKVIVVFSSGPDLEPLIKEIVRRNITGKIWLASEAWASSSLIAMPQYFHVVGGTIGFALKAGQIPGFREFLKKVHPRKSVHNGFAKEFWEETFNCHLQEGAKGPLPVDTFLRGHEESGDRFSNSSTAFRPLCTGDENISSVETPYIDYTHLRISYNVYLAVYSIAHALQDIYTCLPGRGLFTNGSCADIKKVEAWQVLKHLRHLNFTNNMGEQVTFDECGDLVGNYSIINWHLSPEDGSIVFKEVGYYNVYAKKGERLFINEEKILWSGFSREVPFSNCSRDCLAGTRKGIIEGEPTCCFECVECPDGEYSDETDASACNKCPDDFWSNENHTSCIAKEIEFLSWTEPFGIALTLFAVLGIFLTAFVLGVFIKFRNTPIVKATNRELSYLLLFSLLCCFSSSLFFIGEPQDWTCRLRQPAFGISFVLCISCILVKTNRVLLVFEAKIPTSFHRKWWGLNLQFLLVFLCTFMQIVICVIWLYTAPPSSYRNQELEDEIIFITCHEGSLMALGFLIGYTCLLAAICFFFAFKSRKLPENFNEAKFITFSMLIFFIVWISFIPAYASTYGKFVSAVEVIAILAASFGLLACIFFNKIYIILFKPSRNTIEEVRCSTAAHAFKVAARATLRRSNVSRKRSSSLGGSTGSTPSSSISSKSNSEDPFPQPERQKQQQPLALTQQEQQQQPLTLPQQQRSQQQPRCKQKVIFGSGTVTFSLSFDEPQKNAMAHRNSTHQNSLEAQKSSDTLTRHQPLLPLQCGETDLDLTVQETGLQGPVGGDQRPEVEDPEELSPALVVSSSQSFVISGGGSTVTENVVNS
# Experimental: 293E Cells (EBNA1-expresion HEK293 cells, ATCC No. CRL-10852) were cultivated in DMEN/Ham's-F12 (3.15/mL glucose-containing Dulbecco's modified Eagle medium, available from Nakaraitesk Company) supplemented with 10% fetal calf serum, in the presence of 200 μg/mL of G418 (available from Genetisin). The cultured cells were inoculated in F25 flask at a density of 3×10^6 cells/10 mL, the flask was allowed to stand over 24 hours in a CO2 incubator (5% CO2, 37° C.), and then the human CaSR-expression plasmid hCaSR/pcDNA3.1 was transformed or transfected with a reagent for transfection Fugene6 (available from Roche Company). The transfected plasmid was maintained in a CO2 incubator for 6 to 7 hours, then the cells were recovered using a 10% fetal calf serum-containing DMEM/Ham's-F12 and the cells were inoculated in each well of a poly-D-lysine coat 96-well plate (BD-Biocoat) at a density of 70,000 cells/well.
# To each well of the 96-well plate, each test compound was dissolved in a 0.1% BSA-containing Assay Buffer in an amount of 50 μl/well, and then any change of the intensity of fluorescence was monitored over 3 minutes using FLEX Station (available from Molecular Devices Company).
# Method for the Determination of EC50:
# The difference (RFU (Max-Min)) between the maximum and minimum fluorescent intensities observed for each well before and after the addition of each specific test compound was determined by the automatic calculation using FLEX Station. The activity rate was calculated while the RFU (Max-Min) value observed when adding the compound at the maximum concentration was defined to be 100% and the RFU (Max-Min) value observed when using the 0.1% BSA-containing Assay Buffer free of any test compound was defined to be 0%, followed by subjecting the resulting data to the curve-fitting procedures using the spreadsheet software Xfit or Graph-Pad-Prism to thus determine the EC50 which was the concentration of the compound at the activity rate of 50%.
# In addition, the same EC50-determining procedures used above were repeated except for using other dipeptides as Comparative Examples.
# [2] = Quantitative sensory evaluation test of kokumi-imparting activity; type: in vivo, human; conditions: n=4
# Experimental: This quantitative sensory evaluation test was carried out according to the following procedures: The intensity of the kokumi-imparting activity observed for each test compound was determined as a value observed when blending 0.00001 to 0.5 g/dL of the corresponding test compound with the distilled water containing sodium glutamate (0.05 g/dL), inosinic acid monophosphate (0.05 g/dL), and sodium chloride (0.5 g/dL). […] The evaluation criteria are assumed to be as follows: control: 0 point; strong: 3 points; very strong: 5 points. Moreover, to clarify the criteria, the initial taste and the middle/after taste of γ-Glu-Val-Gly were set at 3.0 points, respectively. The scoring or rating was carried out using the method of line scale and more specifically, it was carried out by writing each corresponding score on a straight line on which points corresponding to −5˜0˜5 had been indicated. The panelists used in this test were defined to be persons who had been engaged in the development of seasonings for foods over not less than one year of the cumulative time period and who could judge that the difference in the titer between γ-Glu-Cys-Gly and γ-Glu-Val-Gly added to a solution having umami/salty taste is about 10 times (while confirming the ability of these persons at regular intervals). The evaluation was carried out at n (the number of panelists used)=4. The term “initial taste” means the taste which develops from 0 to 2 seconds after the sample is placed in the panelist's mouth, while the term “middle/after taste” means the taste which develops thereafter.
# In addition, γ-Glu-Val-Gly, γ-Glu-Cys, γ-Glu-Val, γ-Glu-Ala and γ-Glu-Ser were likewise inspected for their kokumi-imparting effect according to the same procedures used above.
structure (smiles),measurement,setting,value
"CCC[C@H](NC(=O)CC[C@H](N)C(=O)O)C(=O)O [γ-Glu-Nva, γ-L-glutamyl-L-norvaline]",EC50,"[1]; 293E cells transfected with hCaSR/pcDNA3.1, Calcium 4 fluorescence, FLEX Station",120 nM
same,CaSR agonist activity,[1]; compared with other dipeptides,strong CaSR agonist activity comparable to that observed for γ-Glu-Cys
same,Sensory Evaluation Profile,[2]; 0.0001 g/dL in umami/salty solution,Mainly the initial and middle tastes
same,"Intensity of kokumi, Middle/After Taste","[2]; 0.0001 g/dL in water with MSG 0.05, IMP 0.05, NaCl 0.5 g/dL",2.8 points
same,"Intensity of kokumi, Initial Taste","[2]; 0.0001 g/dL in water with MSG 0.05, IMP 0.05, NaCl 0.5 g/dL, scale control 0, strong 3, very strong 5",3.6 points
